Key:
Assay type in all cases: ADME
Cytochrome P450 2C19 [1] = biological target: T1, Cytochrome P450 2C19 (Homo sapiens, UniProt P33261, R144H); assay: Activity of human recombinant CYP2C19.9 mutant expressed in Saccharomyces cerevisiae BJ5457 assessed as intrinisic clearance foromeprazole 5'-hydroxylation per pmol protein after 60 mins; details: recombinant enzyme, 1 h
Cytochrome P450 2C19 [2] = biological target: T2, Cytochrome P450 2C19 (Homo sapiens, UniProt P33261, E92D); assay: Activity of human recombinant CYP2C19 E92D mutant expressed in Saccharomyces cerevisiae BJ5457 assessed asomeprazole 5'-hydroxylation per pmol protein after 60 mins; details: recombinant enzyme, 1 h
Cytochrome P450 2C19 [3] = biological target: T3, Cytochrome P450 2C19 (Homo sapiens, UniProt P33261); assay: Activity of human recombinant CYP2C19.1A mutant expressed in Saccharomyces cerevisiae BJ5457 assessed as omeprazole 5'-hydroxylation per pmol protein at 100 uM after 60 mins; details: recombinant enzyme, 1 h
Cytochrome P450 2C19 [4] = biological target: Cytochrome P450 2C19 (Homo sapiens, UniProt P33261, A161P); assay: Activity of human recombinant CYP2C19 A161P mutant expressed in Saccharomyces cerevisiae BJ5457 assessed as omeprazole 5'-hydroxylation per pmol protein at 5 uM after 60 mins; details: recombinant enzyme, 1 h
Cytochrome P450 2C19 [5] = biological target: T4, Cytochrome P450 2C19 (Homo sapiens, UniProt P33261, R150H); assay: Activity of human recombinant CYP2C19.11 mutant expressed in Saccharomyces cerevisiae BJ5457 assessed asomeprazole 5'-hydroxylation after 60 mins; details: recombinant enzyme, 1 h
Cytochrome P450 2C19 [6] = biological target: T5, Cytochrome P450 2C19 (Homo sapiens, UniProt P33261, V331I/R442C); assay: Activity of human recombinant CYP2C19.16 mutant expressed in Saccharomyces cerevisiae BJ5457 assessed as intrinisic clearance foromeprazole 5'-hydroxylation per pmol protein after 60 mins; details: recombinant enzyme, 1 h
Cytochrome P450 2C19 [7] = biological target: T3, Cytochrome P450 2C19; assay: Activity of human recombinant CYP2C19.1B mutant expressed in Saccharomyces cerevisiae BJ5457 assessed as intrinisic clearance foromeprazole 5'-hydroxylation per pmol protein after 60 mins; details: recombinant enzyme, 1 h
[8] = biological target: CYP2C19.19 (CYP2C19 variant) (Homo sapiens, UniProt P33261, S51G); assay: Activity of human recombinant CYP2C19.19 mutant expressed in Saccharomyces cerevisiae BJ5457 assessed asomeprazole 5'-hydroxylation after 60 mins; details: probe omeprazole (5'-hydroxylation)
Cytochrome P450 2C19 [9] = biological target: T1, Cytochrome P450 2C19; assay: Activity of human recombinant CYP2C19.9 mutant expressed in Saccharomyces cerevisiae BJ5457 assessed asomeprazole 5'-hydroxylation after 60 mins; details: recombinant enzyme, 1 h
Cytochrome P450 2C19 [10] = biological target: T6, Cytochrome P450 2C19 (Homo sapiens, UniProt P33261, E122A); assay: Activity of human recombinant CYP2C19 E122A mutant expressed in Saccharomyces cerevisiae BJ5457 assessed asomeprazole 5'-hydroxylation per pmol protein after 60 mins; details: recombinant enzyme, 1 h
Cytochrome P450 2C19 [11] = biological target: T2, Cytochrome P450 2C19; assay: Activity of human recombinant CYP2C19 E92D mutant expressed in Saccharomyces cerevisiae BJ5457 assessed as intrinisic clearance foromeprazole 5'-hydroxylation per pmol protein after 60 mins; details: recombinant enzyme, 1 h
Cytochrome P450 2C19 [12] = biological target: T7, Cytochrome P450 2C19 (Homo sapiens, UniProt P33261, F168L); assay: Activity of human recombinant CYP2C19 F168L mutant expressed in Saccharomyces cerevisiae BJ5457 assessed as intrinisic clearance foromeprazole 5'-hydroxylation per pmol protein after 60 mins; details: recombinant enzyme, 1 h
Cytochrome P450 2C19 [13] = biological target: Cytochrome P450 2C19 (Homo sapiens, UniProt P33261, L17P); assay: Activity of human recombinant CYP2C19.14 mutant expressed in Saccharomyces cerevisiae BJ5457 assessed as omeprazole 5'-hydroxylation per pmol protein at 5 uM after 60 mins; details: recombinant enzyme, 1 h
Cytochrome P450 2C19 [14] = biological target: Cytochrome P450 2C19 (Homo sapiens, UniProt P33261, S51G); assay: Activity of human recombinant CYP2C19.19 mutant expressed in Saccharomyces cerevisiae BJ5457 assessed as omeprazole 5'-hydroxylation per pmol protein at 100 uM after 60 mins; details: recombinant enzyme, 1 h
Cytochrome P450 2C19 [15] = biological target: T7, Cytochrome P450 2C19; assay: Activity of human recombinant CYP2C19 F168L mutant expressed in Saccharomyces cerevisiae BJ5457 assessed as omeprazole 5'-hydroxylation per pmol protein at 100 uM after 60 mins; details: recombinant enzyme, 1 h
Cytochrome P450 2C19 [16] = biological target: T7, Cytochrome P450 2C19; assay: Activity of human recombinant CYP2C19 F168L mutant expressed in Saccharomyces cerevisiae BJ5457 assessed asomeprazole 5'-hydroxylation after 60 mins; details: recombinant enzyme, 1 h
Cytochrome P450 2C19 [17] = biological target: T3, Cytochrome P450 2C19; assay: Activity of human recombinant CYP2C19.1B mutant expressed in Saccharomyces cerevisiae BJ5457 assessed as omeprazole 5'-hydroxylation per pmol protein at 5 uM after 60 mins; details: recombinant enzyme, 1 h
Cytochrome P450 2C19 [18] = biological target: T2, Cytochrome P450 2C19; assay: Activity of human recombinant CYP2C19 E92D mutant expressed in Saccharomyces cerevisiae BJ5457 assessed as omeprazole 5'-hydroxylation per pmol protein at 5 uM after 60 mins; details: recombinant enzyme, 1 h
Cytochrome P450 2C19 [19] = biological target: T5, Cytochrome P450 2C19; assay: Activity of human recombinant CYP2C19.16 mutant expressed in Saccharomyces cerevisiae BJ5457 assessed as omeprazole 5'-hydroxylation per pmol protein at 5 uM after 60 mins; details: recombinant enzyme, 1 h
Cytochrome P450 2C19 [20] = biological target: Cytochrome P450 2C19 (Homo sapiens, UniProt P33261, D360N); assay: Activity of human recombinant CYP2C19 D360N mutant expressed in Saccharomyces cerevisiae BJ5457 assessed as intrinisic clearance foromeprazole 5'-hydroxylation per pmol protein after 60 mins; details: recombinant enzyme, 1 h
Cytochrome P450 2C19 [21] = biological target: Cytochrome P450 2C19 (Homo sapiens, UniProt P33261, R433W); assay: Activity of human recombinant CYP2C19.5B mutant expressed in Saccharomyces cerevisiae BJ5457 assessed as omeprazole 5'-hydroxylation per pmol protein at 5 uM after 60 mins; details: recombinant enzyme, 1 h
[22] = Activity of human recombinant CYP2C19.6 mutant expressed in Saccharomyces cerevisiae BJ5457 assessed as omeprazole 5'-hydroxylation per pmol protein at 100 uM after 60 mins; details: recombinant enzyme, 1 h
Cytochrome P450 2C19 [23] = biological target: Cytochrome P450 2C19 (Homo sapiens, UniProt P33261, I19L); assay: Activity of human recombinant CYP2C19.15 mutant expressed in Saccharomyces cerevisiae BJ5457 assessed as omeprazole 5'-hydroxylation per pmol protein at 5 uM after 60 mins; details: recombinant enzyme, 1 h
Cytochrome P450 2C19 [24] = biological target: T3, Cytochrome P450 2C19; assay: Activity of human recombinant CYP2C19.8 mutant expressed in Saccharomyces cerevisiae BJ5457 assessed as omeprazole 5'-hydroxylation per pmol protein at 100 uM after 60 mins; details: recombinant enzyme, 1 h
Cytochrome P450 2C19 [25] = biological target: T6, Cytochrome P450 2C19; assay: Activity of human recombinant CYP2C19 E122A mutant expressed in Saccharomyces cerevisiae BJ5457 assessed asomeprazole 5'-hydroxylation after 60 mins; details: recombinant enzyme, 1 h
Cytochrome P450 2C19 [26] = biological target: T5, Cytochrome P450 2C19; assay: Activity of human recombinant CYP2C19.16 mutant expressed in Saccharomyces cerevisiae BJ5457 assessed asomeprazole 5'-hydroxylation after 60 mins; details: recombinant enzyme, 1 h
Cytochrome P450 2C19 [27] = biological target: T3, Cytochrome P450 2C19; assay: Activity of human recombinant CYP2C19.1A mutant expressed in Saccharomyces cerevisiae BJ5457 assessed as intrinisic clearance foromeprazole 5'-hydroxylation per pmol protein after 60 mins; details: recombinant enzyme, 1 h
Cytochrome P450 2C19 [28] = biological target: T4, Cytochrome P450 2C19; assay: Activity of human recombinant CYP2C19.11 mutant expressed in Saccharomyces cerevisiae BJ5457 assessed as omeprazole 5'-hydroxylation per pmol protein at 100 uM after 60 mins; details: recombinant enzyme, 1 h
Cytochrome P450 2C19 [29] = biological target: Cytochrome P450 2C19 (Homo sapiens, UniProt P33261, R329H); assay: Activity of human recombinant CYP2C19.18 mutant expressed in Saccharomyces cerevisiae BJ5457 assessed as omeprazole 5'-hydroxylation per pmol protein at 5 uM after 60 mins; details: recombinant enzyme, 1 h
Cytochrome P450 2C19 [30] = biological target: Cytochrome P450 2C19 (Homo sapiens, UniProt P33261, W212C); assay: Activity of human recombinant CYP2C19 W212C mutant expressed in Saccharomyces cerevisiae BJ5457 assessed asomeprazole 5'-hydroxylation after 60 mins; details: recombinant enzyme, 1 h

## COc1ccc2[nH]c([S+]([O-])Cc3ncc(C)c(OC)c3C)nc2c1 (stereo not given) [OMEPRAZOLE]
Cytochrome P450 2C19 [1]
  CL: 0.62 µL/min
Cytochrome P450 2C19 [2]
  Vmax: 6.93 pmol/min
Cytochrome P450 2C19 [3]
  Drug metabolism: 5.87 pmol/min
Cytochrome P450 2C19 [4]
  Drug metabolism: 0.65 pmol/min
Cytochrome P450 2C19 [5]
  Km: 4.91 µM
Cytochrome P450 2C19 [6]
  CL: 0.41 µL/min
Cytochrome P450 2C19 [7]
  CL: 1.24 µL/min
[8]
  Km at 1 h: 14.5 µM
Cytochrome P450 2C19 [9]
  Km: 10.1 µM
Cytochrome P450 2C19 [10]
  Vmax: 4.89 pmol/min
Cytochrome P450 2C19 [11]
  CL: 0.79 µL/min
Cytochrome P450 2C19 [12]
  CL: 0.94 µL/min
Cytochrome P450 2C19 [13]
  Drug metabolism: 2.85 pmol/min
Cytochrome P450 2C19 [14]
  Drug metabolism: 8.65 pmol/min
Cytochrome P450 2C19 [15]
  Drug metabolism: 5.48 pmol/min
Cytochrome P450 2C19 [16]
  Km: 6.56 µM
Cytochrome P450 2C19 [17]
  Drug metabolism: 2.73 pmol/min
Cytochrome P450 2C19 [18]
  Drug metabolism: 2.95 pmol/min
Cytochrome P450 2C19 [19]
  Drug metabolism: 0.65 pmol/min
Cytochrome P450 2C19 [20]
  CL: 0.53 µL/min
Cytochrome P450 2C19 [21]
  Drug metabolism: metabolite_not_detected
[22]
  Drug metabolism: metabolite_not_detected
Cytochrome P450 2C19 [23]
  Drug metabolism: 3.41 pmol/min
Cytochrome P450 2C19 [24]
  Drug metabolism: 0.72 pmol/min
Cytochrome P450 2C19 [25]
  Km: 12.3 µM
Cytochrome P450 2C19 [26]
  Km: 4.17 µM
Cytochrome P450 2C19 [27]
  CL: 1.49 µL/min
Cytochrome P450 2C19 [28]
  Drug metabolism: 6.38 pmol/min
Cytochrome P450 2C19 [29]
  Drug metabolism: 2.21 pmol/min
Cytochrome P450 2C19 [30]
  Km: 11.2 µM

Source: ChEMBL document CHEMBL3526057 (Drug Metab Dispos, 2011)
